According to PMC5040732, “Development of a Novel Quantitative Structure-Activity Relationship Model to Accurately Predict Pulmonary Absorption and Replace Routine Use of the Isolated Perfused Respiring Rat Lung Model” (Pharmaceutical Research, 2016):
Marks after values point to notes of the source that are not given here.

Tests used:
[1] = isolated perfused respiring rat lung (IPRLu) model, intratracheal instillation; settings: for half-life / recovery at 20 min: male, CD, rat, 100 μL, pH 7.4; for %SDiP: solubilised dose in perfusate at 20 mins; for %TDiP: total dose in perfusate at 20 mins; for recovery at 20 min: isolated perfused respiring rat lung (IPRLu), lungs in situ
Procedure: The IPRLu model, including surgery, dosing and sample collection, was performed by the Laboratory Animal Sciences department at GSK. Methodology was based on that described by Tronde et al. (23;24) but with lungs remaining in situ and intratracheal instillation as the dosing technique. Prior to surgery male CD rats were anaesthetised with intraperitoneal ketamine and medetomidine (Dormitor^TM) at […] and 0.5 ml/kg respectively. In addition, 50U of heparin was administered intravenously via a tail vein. Following confirmation of anaesthesia, the front of the rib cage was removed to access heart and lungs, and the trachea cannulated and secured with a ligature. Respiration was transferred to a positive pressure small animal ventilator (Harvard Apparatus Ltd, Edenbridge, Kent, UK) and maintained at 40 breaths per minute with a tidal volume of 1.8 ml. Following exsanguination, the pulmonary artery and vein were cannulated through incisions in the right and left ventricles in order to isolate the blood pulmonary circulatory system. The rat was then raised and maintained at an angle of 45° using a custom made elevating chamber similar to that described by Brain et al. ([26]). […] After an initial first pass to flush blood from the lung vasculature, the perfusion buffer was then recirculated for approximately 10 minutes to equilibrate and attain the required flow rate. Lungs were visually inspected for leaks and signs of oedema ([27]). Compounds were administered either discretely or co-formulated (2–4 compounds) and experiments were carried out in duplicate. Doses (100 μL) were administered to the trachea slightly above the bifurcation point by introduction of a 50 mm needle Hamilton syringe into the tracheal cannula followed by 3 x 1 ml of air. The tracheal cannula was then reattached to the ventilator and total perfusate was collected over 1 min intervals for 20 mins. Perfusate aliquots (1 ml) were frozen (-20°C) along with terminal lung samples prior to analysis.
Homogenised lung and perfusate samples underwent protein precipitation by addition of a 3-fold excess of acetonitrile containing an internal standard. Following either filtration or centrifugation the resulting filtrate or supernatant was typically dried down under a nitrogen stream and then reconstituted in the mobile phase used for separation by HPLC. Following sample preparation lung and perfusate samples, along with residual dose formulations (pre- and post-centrifugation) were analysed by HPLC tandem mass spectrometry (LC-MS/MS), typically using a generic reverse phase chromatography gradient method with separation on a C18 column (50 x 2.1 mm, 3 μm) and an acidified mobile phase.
The cumulative amount of parent compound crossing the lung into the perfusate by the end of the 20 minute experiment was expressed as % of the total dose or as % of the dose originally in solution (solubilised dose). The relative rate of absorption across the lungs was also calculated, the percentage of the administered dose remaining in the lungs was plotted semilogarithimically against time and the initial rate of absorption expressed as a half-life.

[2] = % of dose in solution in the dose formulation (dose analysis pre- and post-centrifugation); format: physicochemical; settings: aqueous dose formulation
From the text: All compounds were formulated in an aqueous vehicle, the majority (79%) containing 0.2% Tween 80 in either water or saline. Due to the diverse nature of the molecules investigated, formulations were a mix of solutions and suspensions ranging from <1 to 100% compound in solution. Compound solubility effects were investigated using a tool compound available in three micronised salt forms with varying solubilities. The free base (FB), hydroxynapthoate (HNA) and hydrochloride (HCl) forms were each administered to the IPRLu model at a dose equivalent to 15 μg free base.
Data generated with the IPRLu model on 17 marketed drugs (14 out of 17 designed for inhaled delivery) are shown in Table I. All the compounds display a moderate to high extent of total dose in the perfusate at 20 minutes (10–100%), in keeping with the in-house observation that compounds displaying < <10% carry a high risk of accumulation in the lung upon repeat dosing, which can lead to developability issues and high attrition rates. The marketed compound set can be classified into two groups according to their solubility. The first group are reasonably soluble in the dose formulation (>80% of the parent compound in solution, determined by dose analysis pre- and post-centrifugation) and display similar values for %SDiP and %TDiP. The second group are only partially soluble in the dose formulation (<80% of the parent compound in solution) and therefore display greater values for %SDiP compared to %TDiP.

[3] = other: intratracheal instillation
[4] = solubility in dose vehicle determined post study on a discrete weighing of the compound
[5] = mean (n = 2), range in brackets

| Structure (SMILES) | half-life [1, 3] [min] | %TDiP [1, 5] | % Dose in solution [2] [%] | recovery at 20 min [1, 3] [%] | %SDiP [1, 5] | other results |
| --- | --- | --- | --- | --- | --- | --- |
| C[C@@H]1C[C@H]2[C@@H]3C[C@H](F)C4=CC(=O)C=C[C@]4(C)[C@@]3(F)[C@@H](O)C[C@]2(C)[C@@]1(OC(=O)c1ccco1)C(=O)SCF [Fluticasone Furoate] | 153 | 10 (7–12) % | 3.2 |  |  | %SDiP [1, 4]: 300^c %; %SDiP ([1]; solubility in dose vehicle determined post study on a discrete weighing of the compound, listed as fluticasone furoate): > 100% |
| CCCC1O[C@@H]2C[C@H]3[C@@H]4CCC5=CC(=O)C=C[C@]5(C)[C@H]4[C@@H](O)C[C@]3(C)[C@]2(C(=O)CO)O1 (stereo partly shown) [Budesonide] | 3.3 | 77 (76–79) % | 14 | 84 | 551 (540–561) % | %SDiP ([1]; mean (n = 2), range in brackets, listed as budesonide): > 100% |
| CCN(CC)CC(=O)Nc1c(C)cccc1C [Lidocaine] |  | 75 (64–82) % | 100 |  |  | %SDiP [1, 4]: 75^c % |
| CC1(C)O[C@@H]2C[C@H]3[C@@H]4C[C@H](F)C5=CC(=O)C=C[C@]5(C)[C@H]4[C@@H](O)C[C@]3(C)[C@]2(C(=O)CO)O1 [Flunisolide] | 15 | 41 (28–53) % | 42 | 139 | 96 (66–126) % | %SDiP ([1]; mean (n = 2), range in brackets, listed as flunisolide): 100% |
| Nc1c(Br)cc(Br)cc1CN[C@H]1CC[C@H](O)CC1 [Ambroxol] | 39 |  | 95 | 70 |  |  |
| CC(C)(O)c1ccccc1CC[C@@H](SCC1(CC(=O)O)CC1)c1cccc(/C=C/c2ccc3ccc(Cl)cc3n2)c1 [Montelukast] | 42 | 67 (57–78) % | 73 | 77 |  |  |
| CCCc1c2oc(C(=O)O)cc(=O)c2cc2c(=O)cc(C(=O)O)n(CC)c12 [Nedocromil] | 32 | 32 (23–40) % | 24 | 85 | 125 (83–166) % | %SDiP ([1]; mean (n = 2), range in brackets, listed as nedocromil): > 100% |
| COc1ccc(C[C@@H](C)NC[C@H](O)c2ccc(O)c(NC=O)c2)cc1.COc1ccc(C[C@@H](C)NC[C@H](O)c2ccc(O)c(NC=O)c2)cc1.O=C(O)/C=C/C(=O)O [Formoterol Fumerate] |  | 47 (42–52) % | 100 |  | 47 (42–52) % | Lung T1/2 (mins) ([1]; lung absorption half-life, mean (n = 2), range in brackets): 24 (22–26) mins; Recovery of total dose (%) ([1]; only where lung analysis was carried out, mean (n = 2), range in brackets): 73 (70–76) % |
| N=C(N)NC(=O)c1nc(Cl)c(N)nc1N [Amiloride] | 8 |  | 100 | 81 |  |  |
| CC(C)[N+]1(C)[C@@H]2CC[C@H]1C[C@@H](OC(=O)C(CO)c1ccccc1)C2 (stereo partly shown) [Ipratropium Bromide] |  |  | 100 |  |  |  |
| CC(C)(C)NCC(O)c1ccc(O)c(CO)c1 (stereo not shown) [Salbutamol] |  |  | 55 | 78 |  |  |
| CCc1cc2c(cc1CC)CC(NC[C@H](O)c1ccc(O)c3[nH]c(=O)ccc13)C2 [Indacaterol] | 273 | 11 (10,11) % | 88 | 91 | 12 (12) % | %SDiP ([1]; mean (n = 2), range in brackets, listed as indacaterol): 12% |
| CCC(=O)O[C@]1(C(=O)SCF)[C@H](C)C[C@H]2[C@@H]3C[C@H](F)C4=CC(=O)C=C[C@]4(C)[C@@]3(F)[C@@H](O)C[C@@]21C [Fluticasone Propionate] | 115 | 10 (10) % | 0.5 |  |  | %SDiP [1, 4]: 2000^c %; %SDiP ([1]; solubility in dose vehicle determined post study on a discrete weighing of the compound, listed as fluticasone propionate): > 100% |
| C=CC[C@@H]1/C=C(\C)C[C@H](C)C[C@H](OC)[C@H]2O[C@@](O)(C(=O)C(=O)N3CCCC[C@H]3C(=O)O[C@H](/C(C)=C/[C@@H]3CC[C@@H](O)[C@H](OC)C3)[C@H](C)[C@@H](O)CC1=O)[C@H](C)C[C@@H]2OC [Tacrolimus (prograf), Tacrolimus] | 28 | 38 (38) % | 21 |  | 178 (176–180) % | %SDiP ([1]; mean (n = 2), range in brackets, listed as tacrolimus): > 100% |
| CC(=O)N[C@H]1[C@H]([C@H](O)[C@H](O)CO)OC(C(=O)O)=C[C@@H]1N=C(N)N [Zanamivir] | 7 | 100 (100–100) % |  | 104 |  |  |
| OCc1cc(C(O)CNCCCCCCOCCCCc2ccccc2)ccc1O (stereo not shown) [Salmeterol] | 146 | 15 (6–24) % | 36 | 69 | 41 (16–66) % |  |
| C[N+]1(C)[C@@H]2C[C@@H](OC(=O)C(O)(c3cccs3)c3cccs3)C[C@H]1[C@@H]1O[C@@H]12 [Tiotropium Bromide] |  | 61 (59–62) % |  |  |  | half-life [1]: 16 min |
